The results in this text go back to patent publication US10676474B2, “1,6-naphthyridine derivatives as CDK4/6 inhibitor” (CSTONE PHARMACEUTICALS, priority 2016, dated 2020).

One data set deals with NCI-H358 cells. Kind of data set: Cell viability assay NCI-H358 (CellTiter-Glo). In kind it is cell-based. The conditions noted are these: Homo sapiens, 168 h; NCI-H358, incubated for 7 days. As to the method:
The NCI-H358 cell line is from the cell bank of the Department of Biology of WuXi Apptec Co. Ltd. Envision Multi-Label Analyzer (PerkinElmer).
1) 100 μL of phosphate buffer solution was added to the peripheral wells of the 384-well plate and 40 μL of NCI-H358 cell suspension was added to the other wells containing 250 NCI-H358 cells. The cell plate was then placed in a carbon dioxide incubator and incubated overnight.
2) A 3-fold gradient dilution was subjected to the tested compounds using Echo. Each compound was diluted by 10 concentration gradients (diluted from 25 μM to 1.27 nM), 100 nL of which was added to the corresponding wells of the cell plate. The cell plate was then placed in a carbon dioxide incubator and incubated for 7 days.
3) 20 μL of Promega CellTiter-Glo reagent was added to each well of the cell plate, and shaken for 10 minutes away from light at room temperature to stabilize the luminescence signal. Readings were performed using a PerkinElmer Envision Multi-label Analyzer.
Table 1 provides the inhibitory activity of the compounds of the present invention against the proliferation of H358 cells.
On the technique in general: In ATP-based viability assays light output follows the ATP content of the culture.

A short description of data set [1]: Metabolic stability in mouse liver microsomes. In kind it is in vitro ADME. The conditions noted are these: 0.5 mg/mL protein, read-out: Mice T1/2. The method, then:
This assay is used to test the metabolic stability of tested substances in rats, mice and human liver microsomes.
1) The tested compound with concentration of 1 μM was co-incubated with liver microsomes with a protein concentration of 0.5 mg/mL under a reducing coenzyme II regeneration system in a 37° C. water bath.
2) The positive controls include: testosterone (3A4 substrate), propafenene (2D6 substrate) and diclofenac (2C9 substrate). The incubation condition of the positive controls was consistent with that of the compound.
3) The reaction time points were: 0, 5, 10, 20, 30 and 60 minutes, and the reaction is terminated at the corresponding time point using a termination solution containing an internal standard. The compounds were also incubated with microsomes for 60 minutes without a reducing coenzyme II regeneration system and served as a negative control.
4) Each time point was a single point (n=1).
5) The sample was determined by LC/MS/MS, and the compound concentration was shown as the ratio of the peak area of the compound to the peak area of the internal standard (non-standard).
6) In the project report summary, the half-life and the clearance rate would be calculated.

The subject of data set [2] is non-small cell lung cancer NCI-H358 model. Kind of data set: In vivo pharmacodynamic study (2), NCI-H358 model, tumor volume. The conditions noted are these: for Gross tumor volume (Day 1): Day 1, Table 6-2; for Gross tumor volume (Day 28): Day 28, Table 6-2. The arrangement: species or system BALB/c nude mice. As to the method:
The in vivo pharmacodynamic experiments were performed on the BALB/c nude mice implanted subcutaneously with the non-small cell lung cancer NCI-H358 model.
All of the cages, beddings and water were disinfected before use. All of the animals were permitted free access to a standard certified commercial laboratory diet. A total of 86 mice purchased from Vital River Laboratory Animal Co., LTD, Beijing were used for the study. The animal information of the experiments in Example 34 was as follows: BALB/c nude mice, female, 6-8 weeks, weighing approximately 16-18 g, were placed in a single ventilated cage (4 mice per cage) under a special pathogen free environment. All of the cages, beddings and water were disinfected before use. All of the animals were permitted free access to a standard certified commercial laboratory diet. A total of 56 mice purchased from Shanghai Lingchang Biotechnology Co., Ltd. were used for the study.
Each mouse was implanted subcutaneously with NCI-H358 tumor cells in the right back for tumor growth. The dosing initiated when the average tumor volume reached about 100-200 mm^3. […] The tumor volume was measured twice a week using a two-dimensional caliper, and the volume was measured in mm^3, calculated by the following the formula: V=0.5 a×b^2, wherein, a and b were the long and short diameters of the tumor, respectively. The antitumor efficacy was determined by dividing the average increase in the tumor volume of the animals treated with the compound by the average increase in the tumor volume of the untreated animals, and the safety of the compound was determined by the change in the body weight of the animal treated with the compound.
TGI: Tumor Growth Inhibition.

Data set [3] deals with colorectal cancer HCT-116 model. Kind of data set: In vivo pharmacodynamic study (3), HCT-116 model, tumor volume. To be noted: 60 mg/kg(D0-D11), 120 mg/kg (D12-D20), PO, QD × 21. Also noted: species or system BALB/c nude mice. The method, then: The in vivo pharmacodynamic experiments were performed on the BALB/c nude mice implanted subcutaneously with the colorectal cancer HCT-116 model.
BALB/c nude mice, female, 6-8 weeks, weighing approximately 18-22 g, were placed in a single ventilated cage (3-5 mice per cage) under a special pathogen free environment. All of the cages, beddings and water were disinfected before use. All of the animals were permitted free access to a standard certified commercial laboratory diet. A total of 48 mice purchased from Shanghai Lingchang Biotechnology Co., Ltd. were used for the study. Each mouse was implanted subcutaneously with 0.2 mL of 5×10^6 HCT-116 cells in the right back for tumor growth. The dosing in groups initiated when the average tumor volume reached about 132 mm^3. The tumor volume was measured twice a week using a two-dimensional caliper, and the volume was measured in mm^3, calculated by the following the formula: V=0.5 a×b^2, wherein, a and b were the long and short diameters of the tumor, respectively. The antitumor efficacy was determined by dividing the average increase in the tumor volume of the animals treated with the compound by the average increase in the tumor volume of the untreated animals.

Data set [4] can be described thus: Two-way permeability evaluation assay of Caco-2 cells. The conditions noted are these: human, Caco-2, pH 7.4. (In general: Passage across Caco-2 layers is used to estimate intestinal permeability.)
Protocol: Assay concentration: 2 μM (DMSO≤1%);
Direction: two-way transport, including two directions: A→B (intracellular→extracellular) and B→A (extracellular→intracellular);
Incubation time: single time point, 2 hours;
transport buffer solution: HBSS, pH 7.4;
Incubation conditions: 37° C., 5% CO2.
After the incubation, the sample solutions in the dosing wells and the receiving wells were immediately mixed with the cold acetonitrile solution containing the internal standard. The concentration of the tested compounds in all samples (including the initial dosing solution, the supernatant of the dosing wells, and the receiving solution) was analyzed by the LC/MS/MS method. The apparent permeability coefficient, the efflux ratio of and other parameters were calculated.
The subject of another data set is Caco-2 cells. The description is as above. To be noted: Caco-2.

Take `CC(=O)c1c(C)c2cnc(Nc3cnc(N4CCN(CCN(C)C)CC4)cn3)cc2n(C2CCCC2)c1=O` [Example 34]: in the data set on NCI-H358 cells, half-maximal inhibition (IC50) required 179 nM. The half-life at 1 μM in data set [1] worked out at 40.2 min. In data set [2] (20 mg/kg orally daily), the “Gross tumor volume (Day 1)” value was 149 ± 18 mm^3, the “TGI (Day 28)” value amounted to 15.3% and the “Gross tumor volume (Day 28)” value came to 940 ± 70 mm^3. For the same molecule, in data set [2] (60 mg/kg orally daily), the “Gross tumor volume (Day 1)” value is 169 ± 27 mm^3, the “TGI (Day 28)” value came out at 32.1% and the “Gross tumor volume (Day 28)” value was determined as 804 ± 103 mm^3. Besides, in data set [2] (150 mg/kg orally daily), the “Gross tumor volume (Day 1)” value is reported as 149 ± 18 mm^3, the “TGI (Day 28)” value is given as 92.9% and the “Gross tumor volume (Day 28)” value was 215 ± 34 mm^3. The “Gross tumor volume, 0 day” value in data set [3] (0 day) worked out at 132 mm^3. For the same molecule, the “Gross tumor volume, 7 days” value in data set [3] (7 days) was 416 mm^3. Further, the “Gross tumor volume, 14 days” value in data set [3] (14 days) is recorded as 695 mm^3. Moreover, the “Gross tumor volume, 21 days” value in data set [3] (21 days) amounted to 963 mm^3. Further, in data set [4], the Papp A→B at 2 h, 2 μM came to 1.15 ×10⁻⁶ cm/s; the Papp B→A at 2 h, 2 μM came out at 16 ×10⁻⁶ cm/s; the efflux ratio at 2 h, 2 μM came to 14. In addition, in the data set with Caco-2 cells, the “Category Efflux transporter substrate” value is “Highly” and the “Category Permeability” value was “Low”.

A word on the IC50: it is the point on the concentration scale where inhibition reaches its midpoint. For orientation: Papp A→B means how fast a substance crosses the layer from the apical side. The low end stands for slow passage, the high end for fast passage. The Papp B→A is how fast a substance crosses the layer from the basolateral side. As a reminder, the efflux ratio is the permeability from basolateral to apical divided by that in the opposite direction, in the common usage.
